The source of these data is a melting point compilation (Tetko et al.; mined from patent text by program, amines drawn as free bases though some values may be those of a salt).

Bounds are passed on as bounds.

For the compound `COc1ccc(C(=O)C(CC(=O)O)c2ccccc2)cc1` (stereo not given), the melting point (in general, the temperature of the solid-liquid transition) is 157 to 159 °C. Next, `O=C(Nc1ccccc1)C(=O)c1c2n(c3ccccc13)CCNCC2`: 157 to 160 °C; `OCCCC(c1c[nH]c2ccccc12)c1c[nH]c2ccccc12`: 110 to 115 °C. In the case of `N#Cc1cc(Oc2ccc(Cl)cc2)ccc1[N+](=O)[O-]` it was 120 to 122 °C. Next, `C[C@@H](NC(=O)c1cnn(-c2ccc(C(F)(F)F)cc2)c1C(F)(F)F)[C@](O)(Cn1cncn1)c1ccc(F)cc1F`: 141 to 143 °C. In the case of `[O-][N+]1=C(c2ccco2)c2cc(Cl)ccc2N(CCCl)C(CCl)C1` (stereo not given), the melting point is 158 to 159 °C. In the case of `CNc1cc(OC)c(OC)cc1[N+](=O)[O-]` it was 147 °C; in that of `C[C@@H](S[C@H]1CO[C@H](c2ccc(C(=O)Nc3ccncc3)cc2)OC1)[C@](O)(Cn1cncn1)c1ccc(F)cc1F`, 133 °C; in that of `CC(C)(C)OC(=O)Nc1ccccc1C1Cc2ccccc2N1C(=O)OC(C)(C)C` (stereo not given), 148 to 150 °C.

As to `CC(NC=O)c1ccc(Nc2nccc(-c3cccnc3)n2)cc1` (stereo not given), the melting point lay within 118 to 121 °C.

In turn, `COc1cccc2c(CCCCN(C3CCC3)C3COc4c(F)ccc(C(N)=O)c4C3)coc12` (stereo not given) showed a melting point of 122 to 127 °C. Next, `CCN1c2ncc(COc3ccc(C(=O)OC)cc3)cc2C(=O)N(C)c2ccc(Cl)nc21`: 196 to 197 °C. Next, `CC1CCc2cc(F)cc3c(=O)c(C(=O)Cl)cn1c23` (stereo not given): 183 to 186 °C; `CC1(C)Oc2ccsc2C(N2CCCC2)C1O` (stereo not given): 85 to 89 °C; `COc1ccc2[nH]c(COC(C)=O)c(C=O)c2c1[N+](=O)[O-]`: 201 to 203 °C. Next, `COC(=O)c1cc(-c2ccc(OC)c(OC)c2)nn(CC=Cc2ccc(Cl)cc2)c1=O`: 118 to 119 °C; `CC(=O)N1N=C(c2ccc([N+](=O)[O-])cc2)c2cc3c(cc2C=C1C)OCO3`: 205 to 207 °C; `COc1ccc(/C=C(\C#N)c2ccc(Cl)cc2Cl)cc1OC1CCCC1`: 105 to 107 °C. As for `CCOc1cc(CCNC(=O)Cn2c(C#N)ccc2-c2ccc3c(c2)C(C)(C)OC(=O)N3)ccc1OC`, the melting point was in the range of 160 to 162 °C. In the case of `CCCCCCC(=O)CCCn1c(CCC)nc2c(N)nc3ccccc3c21` it was 111 to 113 °C; in that of `O=C(CCC(=O)Oc1ccc(C(=O)OCc2ccccc2)cc1)Oc1ccc(C(=O)OCc2ccccc2)cc1`, 106 to 107 °C; in that of `N=C(NCC1(c2ccccc2)CC1)NN=Cc1c(Cl)cccc1Cl`, 136 to 138 °C. Next, `Nc1ccc(Sc2cccc3cnccc23)c([N+](=O)[O-])c1`: 222 to 227 °C. `CCOc1ccc(C=Nc2ccc(S(=O)(=O)NC(C)(C)C)cc2)cc1` returned a melting point of 188 °C. In the case of `COC(=O)C=CCc1cc(C=CC(=O)OC(C)(C)C)cc(Cc2cccnc2)c1` it was 91 to 93 °C; in that of `COCCOc1cc(N(C)S(=O)(=O)c2cccs2)c2[nH]c(C(N)=O)cc2c1`, 214 to 215 °C; in that of `CC(=O)OC1(c2ccc(Cl)cc2)CCN(CCCC(=O)c2ccc(F)cc2)CC1`, 106 to 110 °C. The compound `FC(F)(F)c1cc(CO[C@H]2CCCN(Cc3cccnn3)[C@H]2c2ccccc2)cc(C(F)(F)F)c1` came in with a melting point of 111 to 113 °C. In turn, `Cn1nc(C(=O)NCc2ccc(Cl)cc2)c(=O)c2cc(CN3CCOCC3)ccc21` gave a melting point of 190 to 192 °C. For the compound `COC1C(CO)OC(n2c3ccc(CO)cc3c3c4c(c5c6cc(CO)ccc6[nH]c5c32)C(=O)NC4=O)C(O)C1O` (stereo not given), the melting point is > 300 °C. In the case of `CC1(C(=O)c2ccc(C(=O)O)cc2)CC1` it was 136 to 137 °C; in that of `Cc1c(F)cc(C(C)(C)C)c(O)c1-c1nc2cc(S(=O)(=O)C(F)(F)F)ccc2[nH]1`, 245 to 247 °C; in that of `COc1cc2c(cc1CCC#N)C(=O)CC(C)(C)O2`, 105 to 107 °C. Next, `COC(=O)C(C)=C1CCC2C3CCC4=CC(=O)CCC4(C)C3CCC12C` (stereo not given): 149 to 151 °C. Next, `Cc1ccc2c(Sc3cc(Cl)cc(Cl)c3)c(CC(N)=O)[nH]c2c1`: 197 °C; `CC(C)c1cccc(C(C)C)c1NC(=O)C1CCCC(CCCCCOc2ccccc2)(c2ccccc2)C1=O` (stereo not given): 150 to 153 °C. As for `S=c1[nH]c2ccc(-c3cccc(Cl)c3)cc2n1Cc1ccccc1`, the melting point is 211 to 212 °C. Next, `CCCCc1ccc(NC(=O)CCC)c(N=C(NC(=O)OC)SC)c1`: 116 °C. Compound `CC1(C)NC(=O)N(CSc2cc(C(C)(C)C)c(O)c(C(C)(C)C)c2)C1=O` registered a melting point of 160 to 162 °C. Next, `C[C@H](NC(=O)OCc1ccccc1)C(=O)N[C@@H](Cc1ccccc1)C(=O)O`: 121 to 122 °C; `COc1ccc(CN2C(=O)c3c(-c4ccccc4Cl)cc4c(c3C2=O)c2cc(OC)ccc2n4CCC(O)CO)c(OC)c1` (stereo not given): 126 to 131 °C; `NC(=O)C1CCN(c2c(Br)cncc2-c2ccccc2)CC1`: 220 to 222 °C. In the case of `COc1cc(N)c(Cl)cc1C(=O)NCC1CCN(CCCC(=O)c2ccccc2)CC1` it was 148 to 150 °C; in that of `COc1ccc(S(=O)(=O)Nc2c(Nc3ccccc3)ncnc2OC)cc1`, 159 to 160 °C; in that of `CN(C)C(=O)Cc1cc(Br)ccc1I`, 127 to 129 °C. In the case of `Cc1oc(-c2ccccc2)nc1COc1ccc(COc2ncccc2C#N)cn1` it was 117 to 118 °C; in that of `Cc1nc2cc(C(C)C)ccc2n1C`, 130 to 131 °C. Consider `CCN1C(=O)CN(C(=O)C(F)(F)F)Cc2cc(OC)c([N+](=O)[O-])cc21`, for which the melting point lay within 128 to 129 °C.

As for `OC(CCCN1CC=C(c2cc(C(F)(F)F)on2)CC1)c1ccc(F)cc1` (stereo not given), the melting point was in the range of 120 to 122 °C. In the case of `Cc1cccc(C(=O)O)c1N(C)S(=O)(=O)c1ccc(OCCCNC(=O)c2ccc3c(c2)OCO3)cc1` it was 120 °C. Take `CCOC1=CC2=CCc3cc(C#N)ccc3[C@]2(Cc2ccccc2)CC1`: the melting point was 164 to 165 °C. `Cc1nc2ccccc2n1Cc1ccc(C(=O)O)cc1` yielded a melting point of 300 °C.

`NC(=S)c1c(F)cccc1Cl`: the melting point was in the range of 153 to 157 °C. In the case of `Cc1ccc(-c2cc(C(=O)O)nn2Cc2ccc(F)cc2)cc1C`, the melting point came out at 141 °C. In the case of `CCCCCCCCCCCCS(=O)(=O)CCOc1ccc(CCC(=O)C(F)(F)F)cc1` it was 55 to 56 °C; in that of `Cc1ccc2ccc(NCc3c(C)c(CNc4ccc5ccc(C)nc5n4)c(C)c(CNc4ccc5ccc(C)nc5n4)c3C)nc2n1`, 207 to 208 °C. `Nc1c(OCCNCc2ccccc2)cccc1[N+](=O)[O-]` yielded a melting point of 33 to 60 °C.

In turn, `CCc1noc(-c2cn(-c3ccccc3OCc3ccccc3)cn2)n1` registered a melting point of 106 °C.

`COc1ccc(C2=NN(Cc3ccccc3)C(=O)[C@H]3CC=CC[C@@H]23)cc1OC` (relative stereo): the melting point was in the range of 133 to 135 °C. Next, `CC[C@@]1(C)OC(=O)C(c2ccc(F)cc2)=C1c1ccc(S(C)(=O)=O)cc1`: 120 to 121 °C; `COc1cccc(N2C(CO)=Cc3cc(S(N)(=O)=O)sc3S2(=O)=O)c1`: 180 to 182 °C. Next, `Cc1c(O)c(C)c(CS)c(C)c1CS`: 159 °C; `CCOC(=O)CCc1c(O)ccc2ccc(OCC(=O)OCC)cc12`: 112 to 113 °C. Next, `Cc1c(CC(=O)O)c2cc(O)c(F)cc2n1C(=O)c1ccc(Cl)cc1`: 193 to 195 °C. On to `CCNC(=O)NC1CCCc2ccccc21` (stereo not given), for which the melting point lay within 178 to 179 °C.

`COC(=O)C(CN(c1ccccc1)c1ccccn1)N(C(=O)OC(C)(C)C)C(=O)OC(C)(C)C` (stereo not given) came in with a melting point of 103 °C. Regarding `Cc1cn(-c2ccc(N)c(C)c2)c(C)n1`, the melting point is 92 to 96 °C. In the case of `O=C(O)CCc1ccc(OCc2ccc(CN(CCc3ccccc3)c3nc(-c4ccccc4)cs3)cc2)cc1` it was 114 to 115 °C. In the case of `C/C(=C\c1ccc(C(=O)O)cc1)c1ccc2c(c1)CCCCC2` it was 198 °C. Next, `Nc1nc2ccccc2c2c1nc(CO)n2Cc1cc(-c2ccc(F)cc2)no1`: 262 to 263 °C; `Cc1cc(Oc2ncc(C(F)(F)F)cc2Cl)nn1C(=O)NC1CCCCC1`: 69 to 71 °C; `CCCCCCCCCCCCCCCCCCOc1ccc(C(=O)C(=O)N(CC(=O)OCC)CC(=O)OCC)cc1`: 63 to 64 °C. As to `CN1C(=O)SC(Cc2cn(-c3ccccc3)nc2O)C1=O` (stereo not given), the melting point lay in the range of 233 to 234 °C.

With `COc1ccc(C(=O)c2cccc(OC)c2)cc1`, the melting point lay within 53 to 55 °C. For `CC(=O)c1ccc(C2COc3c(C)c(C)c(NC(=O)CC(C)(C)C)c(C)c32)cc1` (stereo not given), the melting point was 181 to 182 °C.

For `Oc1ccccc1OCCOCCOc1ccccc1O`, the melting point was found to be 85 °C.

For `COc1ccc(CN(CCN(C)CCCCNC(=NCCCOc2cccc(CN3CCCCC3)c2)NC#N)c2ccccn2)cc1`, the melting point was 106 to 108 °C. Turning to `Cc1cc(-c2ccc(C(F)(F)F)cc2)nc(-n2cnc(-c3ccc(S(N)(=O)=O)cc3)c2)n1`, the melting point was found to be 323 °C.

`CC(C)NC(=O)Nc1cc(-c2c(-c3ccc(F)cc3)nc3cccnn23)ccn1` showed a melting point of 222 to 223 °C. In the case of `CCN(CCO)c1ccc(C(=O)OC)cc1` it was 61 to 64 °C; in that of `Cc1cc(-c2cc(C(F)(F)F)nn2-c2ccc(S(C)(=O)=O)c(F)c2)ccc1-c1ccco1`, 123 to 125 °C. `CC(C)c1c(C=O)c(-c2ccc(F)cc2)c2ccccn12` had a melting point of 94 to 95 °C. In the case of `O=C1C[C@H](NC(=O)[C@H]2CCCN2C(=O)c2nc(CCCc3ccc(O)cc3)c[nH]2)[C@@H](OCc2ccccc2)O1` it was 86 to 90 °C.

With `CCC(O)c1ccc(Cl)c2nc3n(c12)CCCN3c1c(Cl)cc(Cl)cc1Cl` (stereo not given), the melting point was 213 to 214 °C.

In turn, `Cc1ccc(CN2Cc3cncn3CC2=O)cc1` gave a melting point of 105 to 108 °C.
